How the values were obtained:
Format in all cases: binding
[1] = target: integrin aVβ3 (Homo sapiens, UniProt P05106+P06756); experiment: Selection of the 700-member encoded library on immobilised integrin aVβ3, then PCR, cloning and sequencing of identifier codons; details: for Count (times the chemical entity's codon was seen after selection): 700-member library after selection, single building block at its position; for Count (times the chemical entity's codon was seen after selection) / share of sequences containing the chemical entity after selection: out of 51 sequences
Protocol: Maxisorp ELISA wells (NUNC A/S, Denmark) were coated with each 100 μL 2 μg/mL integrin aVβ3 in PBS buffer [2.8 mM NaH2PO4, 7.2 mM Na2HPO4, 0.15 M NaCl, pH 7.2] overnight at 4° C. Then the integrin solution was substituted for 200 μl blocking buffer [TBS, 0.05% Tween 20 (Sigma P-9416), 1% bovine serum alnumin (Sigma A-7030), 1 mM MnCl2] which was left on for 3 hours at room temperature. Then the wells were washed 10 times with blocking buffer and the encoded library was added to the wells after diluting it 100 times with blocking buffer. Following 2 hours incubation at room temperature the wells were washed 10 times with blocking buffer. After the final wash the wells were cleared of wash buffer and subsequently inverted and exposed to UV light at 300-350 nm for 30 seconds using a trans-illuminator set at 70% power. Then 100 μl blocking buffer without Tween-20 was immediately added to each well, the wells were shaken for 30 seconds, and the solutions containing eluted identifiers were removed for PCR amplification.
A TOPO-TA (Invitrogen) ligation reaction is assembled with 4 μl PCR product, 1 μl salt solution (Invitrogen) and 1 μl vector. Water is added to 6 μl. The reaction is then incubated at RT for 30 min. Heat-shock competent TOP10 E. coli cells are then thawed on ice and 5 μl of the ligation reaction is added to the thawed cells. The cells are then incubated 30 min on ice, heatshocked in 42° C. water for 30 sec, and then put on ice again. 250 μl of growth medium is added to the cells and they are incubated 1 h at 37° C. The medium containing cells is then spread on a growth plate containing 100 μg/ml ampicillin and incubated at 37° C. for 16 hours.
Individual E. coli clones are then picked and transferred to PCR wells containing 50 μl water. These 50 μl were incubated at 94° C. for 5 minutes and used in a 20 μl in a 25 μl PCR reaction with […] of each TOPO primer M13 forward & M13 reverse and Ready-To-Go PCR beads (Amersham Biosciences). The following PCR profile is used: 94° C. 2 min, then 30×(94° C. 4 sec, 50° C. 30 sec, 72° C. 1, min) then 72° C. 10 min. Primers and nucleotides are then degraded by adding 1 μl 1:1 EXO/SAP mixture (USB corp.) to 2 μl PCR product and incubating at 37° C. for 15 min and then 80° C. for 15 min to heat-inactivate the enzymes. […] T7 primer is added and water is added to 12 μl. Then 8 μl DYEnamic ET cycle sequencing Terminator Mix (Applied biosystems) is added to each well. A thermocycling profile of 30×(95° C. 20 sec, 50° C. 15 sec, 60° C. 1 min) is then run. Then 10 μl water is added to each well and sequencing reactions are purified using seq96 spinplates (Amersham Biosciences). Reactions are then run on a MegaBace capillary electrophoresis instrument (Molecular Dynamics) using injection parameters 2 kV, 50 sec and run parameters: 9 kV 45 min and analyzed using Contig Express software (Informax).
After the selection as described above, the codons in the identifier oligonucleotides were analysed. Before the analysis, the identifier oligonucleotides were amplified using the constant flanking regions and the amplified material was used in the identifier sequence analysis.

[2] = target: T1, Integrin αvβ3 receptor (Homo sapiens, UniProt P05106+P06756); experiment: Selection of Library 1 and Library 2 (61,875 members each) for binders of the Integrin αvβ3 receptor, then building block abundance analysis; details: value = library (1, 2) in which it was more abundant after selection; for More abundant in position 3 in library no.: building block chosen for Library 3 position 3; for More abundant in position 2 in library no.: building block chosen for Library 3 position 2
From the text: The following scheme describes the split and mix assembly of the libraries: • i.) n times [BB1+Oligo1→BB1−Oligo1] in separate wells • Optionally purify product • ii.) mix all n wells into one tube • iii.) split product of ii.) into m separate wells • iv.) m times [BB2+BB1−Oligo1+Oligo2→BB2−BB1−Oligo1−Oligo2] in separate wells • Optionally purify product • v.) mix all m wells into one tube • vi.) split product of v.) into p separate wells • vii.) p times [BB3+BB2−BB1−Oligo1−Oligo2+Oligo3→BB3−BB2−BB1−Oligo1−Oligo2−Oligo3] in separate wells Optionally purify product • viii.) mix all p wells into one tube • ix.) Selection was performed and binders isolated • x.) PCR of DNA and sequencing • xi.) Analyse for building block abundancy and full sequence information
Building block abundances analysis may be done by QPCR or by sequencing full sequences and then analyzing for the abundance of individual building blocks.
Two libraries of 61,875 members (Library 1 and 2) were generated as described in example 6 above and selected for binders of the Integrin αvβ3 receptor separately. The libraries were generated with 99 different building blocks in position 1, 25 different building blocks in position 2 and 25 different building blocks in position 3.
(§1) The identified sequences were then analyzed for the abundances of building blocks at each position in the sequence. The most abundant building blocks at each position from the two libraries 1 and 2 were then used again to generate a new and smaller library of 1,365 members, which was selected for binders of the Integrin αvβ3 receptor. The library was generated with 7 different building blocks in position 1, 13 different building blocks in position 2 and 15 different building blocks in position 3.

[3] = target: T1, Integrin αvβ3 receptor; experiment: Selection of the second-generation library (Library 3, 1,365 members) for binders of the Integrin αvβ3 receptor, then sequencing of isolated identifiers; details: 31 analysed sequences
Protocol: as §1
A subset of the isolated sequences from the library post selection was analysed:
These sequences could be translated into the following building block compositions: […]

T1 sequence (P06756 31-889 limits assumed): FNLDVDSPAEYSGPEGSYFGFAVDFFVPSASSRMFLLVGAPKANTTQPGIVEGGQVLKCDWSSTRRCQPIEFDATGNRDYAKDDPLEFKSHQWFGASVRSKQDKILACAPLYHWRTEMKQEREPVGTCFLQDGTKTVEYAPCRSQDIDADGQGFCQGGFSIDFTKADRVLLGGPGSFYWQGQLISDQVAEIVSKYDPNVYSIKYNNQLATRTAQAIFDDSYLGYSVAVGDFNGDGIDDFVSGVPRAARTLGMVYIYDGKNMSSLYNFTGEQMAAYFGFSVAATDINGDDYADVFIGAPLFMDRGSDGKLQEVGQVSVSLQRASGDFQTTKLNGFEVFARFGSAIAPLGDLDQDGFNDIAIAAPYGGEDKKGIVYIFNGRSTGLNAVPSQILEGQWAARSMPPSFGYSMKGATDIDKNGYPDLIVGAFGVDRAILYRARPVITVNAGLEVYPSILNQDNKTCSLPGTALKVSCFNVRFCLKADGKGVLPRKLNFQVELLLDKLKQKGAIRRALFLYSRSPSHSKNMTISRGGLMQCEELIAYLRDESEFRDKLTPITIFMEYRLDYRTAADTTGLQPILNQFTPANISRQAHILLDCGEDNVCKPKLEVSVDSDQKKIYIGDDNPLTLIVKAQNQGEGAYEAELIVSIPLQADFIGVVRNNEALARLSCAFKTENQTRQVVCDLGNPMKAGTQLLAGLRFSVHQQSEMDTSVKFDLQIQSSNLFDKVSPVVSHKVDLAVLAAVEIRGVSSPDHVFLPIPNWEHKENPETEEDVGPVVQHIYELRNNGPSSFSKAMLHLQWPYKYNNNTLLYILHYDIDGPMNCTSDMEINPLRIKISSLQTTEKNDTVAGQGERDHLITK
T1 sequence (P06756 891-1048 partner limits assumed): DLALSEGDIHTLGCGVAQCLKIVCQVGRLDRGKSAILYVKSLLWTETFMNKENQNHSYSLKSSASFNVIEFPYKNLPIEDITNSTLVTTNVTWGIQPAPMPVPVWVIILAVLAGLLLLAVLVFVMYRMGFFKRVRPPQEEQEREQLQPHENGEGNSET
T1 sequence (P05106 27-788): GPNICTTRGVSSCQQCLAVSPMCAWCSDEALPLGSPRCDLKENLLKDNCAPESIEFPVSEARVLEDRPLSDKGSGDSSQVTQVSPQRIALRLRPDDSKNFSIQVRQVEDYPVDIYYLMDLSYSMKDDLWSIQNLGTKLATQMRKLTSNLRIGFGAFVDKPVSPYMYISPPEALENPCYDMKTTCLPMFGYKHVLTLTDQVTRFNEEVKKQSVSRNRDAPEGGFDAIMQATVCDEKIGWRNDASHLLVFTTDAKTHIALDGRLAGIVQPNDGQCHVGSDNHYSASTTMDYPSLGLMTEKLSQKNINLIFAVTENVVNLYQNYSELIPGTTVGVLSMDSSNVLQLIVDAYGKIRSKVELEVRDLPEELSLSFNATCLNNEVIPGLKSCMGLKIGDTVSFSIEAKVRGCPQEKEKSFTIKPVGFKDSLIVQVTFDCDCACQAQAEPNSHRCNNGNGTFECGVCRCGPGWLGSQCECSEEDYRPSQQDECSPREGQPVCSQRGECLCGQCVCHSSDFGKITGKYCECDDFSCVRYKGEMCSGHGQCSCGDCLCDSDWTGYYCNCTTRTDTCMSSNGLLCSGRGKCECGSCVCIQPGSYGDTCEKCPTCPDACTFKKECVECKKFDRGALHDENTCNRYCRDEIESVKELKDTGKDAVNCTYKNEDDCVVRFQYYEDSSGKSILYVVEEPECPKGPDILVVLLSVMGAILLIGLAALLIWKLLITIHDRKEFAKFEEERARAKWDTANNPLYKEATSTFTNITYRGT
Sequence of integrin aVβ3 (P06756 31-889 limits assumed): as the sequence (P06756 31-889 limits assumed) above
Sequence of integrin aVβ3 (P06756 891-1048 partner limits assumed): as the sequence (P06756 891-1048 partner limits assumed) above
Sequence of integrin aVβ3 (P05106 27-788): as the sequence (P05106 27-788) above

Row | Structure (SMILES) | Count (times the chemical entity's codon was seen after selection) [1] | other results
1 | N[C@@H](CC(=O)O)C(=O)O [BB-A-000098, L-Asp] | 47 | share of the chemical entity before the selection [1]: 25%; share of sequences containing the chemical entity after selection [1]: 92%; More abundant in position 3 in library no. [2]: 1; building block abundance per position in sequences isolated post selection [3]: dominated
2 | C=CCCC(=O)N1CCC[C@@H]1C(=O)O [BBA000064] | 1 | 
3 | C=CCCC(=O)N[C@@H](C)CC(=O)O [BBA000099, Gly] | 14 | share of the chemical entity before the selection [1]: 4%; share of sequences containing the chemical entity after selection [1]: 27%; building block abundance per position in sequences isolated post selection [3]: dominated
4 | N[C@H](CC(=O)O)C(=O)O [BBA000152, D-Asp] |  | More abundant in position 1 in library no. ([2]; building block chosen for Library 3 position 1): 1; More abundant in position 2 in library no. [2]: 2; building block abundance per position in sequences isolated post selection [3]: also found
5 | O=C(O)CCCNc1ccccn1 [BBA0000531] | 35 | share of the chemical entity before the selection [1]: 14%; share of sequences containing the chemical entity after selection [1]: 68%; More abundant in position 3 in library no. [2]: 2
6 | C=CCCC(=O)NCC(=O)O [BBA0000592] |  | More abundant in position 2 in library no. [2]: 1
7 | C=CCCC(=O)N1CCCC(C(=O)O)C1 (stereo not shown) [BBA0000832] |  | More abundant in position 2 in library no. [2]: 1
8 | O=C(O)CCCc1ccc2c(n1)NCCC2 [BBA0001006] | 4 | 
9 | C=CCCC(=O)C(CCC(=O)O)CC1CC1 (stereo not shown) [BBA0001011] | 1 | 
10 | C=CCCC(=O)N(CCC)CCC(=O)O [BBA0001101] | 2 | 
11 | CC(CCC(=O)O)Nc1ccccn1 (stereo not shown) [BBA0001391] | 9 | More abundant in position 3 in library no. [2]: 2
12 | CC(CCCC(=O)O)Nc1ccccn1 (stereo not shown) [BBA0001401] |  | More abundant in position 3 in library no. [2]: 2
13 | C=CCCC(=O)N[C@@H]1CC[C@H](C(=O)O)C1 [BBA0004222] |  | More abundant in position 2 in library no. [2]: 2

Continued, in another order:

Row | Count (times the chemical entity's codon was seen after selection) [1] | Structure (SMILES) | other results
14 | 13 | C=CCCC(=O)N1CC(C(=O)O)C1 [BBA0001582] | 
15 | 1 | C=CCCC(=O)NCc1cccc(C(=O)O)c1 [BBA0003132] | 
16 | 1 | C=CCCC(=O)N1CCC[C@H]1C(=O)O [BBA0003142] | 
17 | 1 | C=CCCC(=O)N[C@H]1CCCC[C@H]1C(=O)O [BBA0003152] | 
18 | 2 | C=CCCC(=O)NCc1ccc(C(=O)O)cc1 [BBA0003172] | 
19 | 5 | C=CCCC(=O)NCCCC(=O)O [BBA0004182] | 
20 | 2 | C=CCCC(=O)N[C@H]1CC[C@@H](C(=O)O)C1 [BBA0004212] | 
21 | 2 | C=CCCC(=O)N1CCCC[C@H]1C(=O)O [BBA0004232] | 
22 | 6 | C=CCCC(=O)N1CCCC[C@@H]1C(=O)O [BBA0004242] | 
23 | 1 | CC(C)(C)OC(=O)NC(CCCCNC(=O)c1ccccn1)C(=O)O (stereo not shown) [BBA0008312] | 
24 | 2 | O=C(O)c1csc(-c2cccnc2)n1 [BBA0008512] | 
